Assay results published in PMC7413254 (Nature Communications, 2020).

Experiments:
Assay type in all cases: cell-based
PfCRT^Dd2 [1] = target: T1, PfCRT^Dd2 (Plasmodium falciparum, UniProt Q9N623, A220S/I356T/K76T/M74I/N326S/N75E/Q271E/R371I); experiment: [3H]CQ uptake into Xenopus oocytes, cis-inhibition by unlabelled solute; details: PfCRTDd2 oocytes, background [3H]CQ accumulation subtracted, normalised to oocyte type control
Outline: (§1)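 PfCRT-expressing and control oocytes: ND96 pH 5.5 → 1.5 h at 27.5 °C → ice-cold ND96 wash → 10% SDS lysis → scintillation count.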

PfCRT^Ecu1110 [2] = target: T2, PfCRT^Ecu1110 (Plasmodium falciparum, UniProt Q9N623, A220S/I356L/K76T/N326D); experiment: as above; details: for PfCRT-mediated [3H]CQ transport, cis-inhibition (% PfCRTEcu1110 control): PfCRTEcu1110 oocytes, background [3H]CQ accumulation subtracted, normalised to oocyte type control; for [3H]CQ transport (% PfCRTEcu1110 control), cis-inhibition, PfCRTEcu1110: PfCRT-mediated component (background subtracted), sheet title says normalised to PfCRTDd2 control, mean ± SEM, SEM
Outline: as §1

PfCRT^3D7 = PfCRT^3D7 (Plasmodium falciparum, UniProt Q8IBZ9); experiment: cell-based; details: PfCRT3D7 oocytes, normalised to oocyte type control
Outline: (§2)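 Transport measured in Xenopus oocytes expressing the transporters, 1.5 h at 27.5 °C in ND96 pH 5.5 unless noted. For trans-stimulation, VF-6 injected in 25 nL ND96 at pH 5.0–7.0 or Na^+-free (choline) buffer; intracellular levels based on ~400 nL oocyte volume. Ten oocytes per treatment, ≥4 experiments.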

PfCRT^Dd2 [3] = target: T1, PfCRT^Dd2; experiment: cell-based; details: for PfCRT-mediated [3H]CQ transport, trans-stimulation (% PfCRTDd2 control): PfCRTDd2 oocytes, normalised to oocyte type control; for [3H]CQ transport (% PfCRTDd2 control), trans-stimulation, PfCRTDd2: PfCRT-mediated component (background subtracted), mean ± SEM, SEM
Outline: as §2

PfCRT^Ecu1110 [4] = target: T2, PfCRT^Ecu1110; experiment: cell-based; details: for PfCRT-mediated [3H]CQ transport, trans-stimulation (% PfCRTEcu1110 control): PfCRTEcu1110 oocytes, normalised to oocyte type control; for [3H]CQ transport (% PfCRTDd2 control), trans-stimulation, PfCRTEcu1110: PfCRT-mediated component (background subtracted), sheet title says normalised to PfCRTDd2 control, mean ± SEM, SEM
Outline: as §2

[5] = [test solute]i = 5 mM (intracellular)
[6] = [test solute]i = 45 mM (intracellular; 30 mM for some solutes due to solubility)
[7] = [test solute]i = 5 mM (injected)
[8] = [test solute]i = 45 mM (30 mM for some solutes due to solubility)

T2 sequence (Q9N623 whole entry A220S/I356L/K76T/N326D): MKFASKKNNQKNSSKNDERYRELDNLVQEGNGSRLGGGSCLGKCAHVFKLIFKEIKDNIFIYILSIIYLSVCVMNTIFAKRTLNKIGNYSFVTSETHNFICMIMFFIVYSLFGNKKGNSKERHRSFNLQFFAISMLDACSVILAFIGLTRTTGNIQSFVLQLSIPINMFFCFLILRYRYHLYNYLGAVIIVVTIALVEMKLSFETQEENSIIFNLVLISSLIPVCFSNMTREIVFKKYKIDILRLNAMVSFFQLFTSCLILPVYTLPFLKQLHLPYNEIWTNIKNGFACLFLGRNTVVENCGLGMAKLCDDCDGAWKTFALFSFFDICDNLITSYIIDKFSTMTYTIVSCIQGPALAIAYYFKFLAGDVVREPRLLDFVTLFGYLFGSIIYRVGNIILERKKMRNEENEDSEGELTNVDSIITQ
Chain of PfCRT^3D7 (Q8IBZ9 59-398): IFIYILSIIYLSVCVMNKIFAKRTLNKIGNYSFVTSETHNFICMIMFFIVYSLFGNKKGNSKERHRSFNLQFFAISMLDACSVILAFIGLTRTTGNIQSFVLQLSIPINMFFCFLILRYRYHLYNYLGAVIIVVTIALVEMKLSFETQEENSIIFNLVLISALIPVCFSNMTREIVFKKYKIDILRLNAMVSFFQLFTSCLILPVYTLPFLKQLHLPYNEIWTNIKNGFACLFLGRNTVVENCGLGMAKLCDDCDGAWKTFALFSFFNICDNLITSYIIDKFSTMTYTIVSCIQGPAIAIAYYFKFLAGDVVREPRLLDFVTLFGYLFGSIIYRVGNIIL
T1 sequence (Q9N623 whole entry A220S/I356T/K76T/M74I/N326S/N75E/Q271E/R371I): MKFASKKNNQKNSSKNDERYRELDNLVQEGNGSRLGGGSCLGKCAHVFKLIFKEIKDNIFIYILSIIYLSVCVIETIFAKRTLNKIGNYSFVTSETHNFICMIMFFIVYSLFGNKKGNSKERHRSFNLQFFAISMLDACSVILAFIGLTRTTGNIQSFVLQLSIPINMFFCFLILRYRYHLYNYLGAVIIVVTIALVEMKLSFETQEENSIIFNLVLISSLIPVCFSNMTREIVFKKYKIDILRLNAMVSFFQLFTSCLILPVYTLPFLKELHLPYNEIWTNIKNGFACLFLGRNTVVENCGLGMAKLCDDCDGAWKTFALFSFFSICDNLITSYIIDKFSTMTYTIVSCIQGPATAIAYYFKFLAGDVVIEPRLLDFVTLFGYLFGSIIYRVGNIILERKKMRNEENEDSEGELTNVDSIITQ

Substance	PfCRT-mediated [3H]CQ transport, cis-inhibition (% PfCRTDd2 control) (PfCRT^Dd2 [1]; [test solute] = 0.5 mM)	PfCRT-mediated [3H]CQ transport, cis-inhibition (% PfCRTDd2 control) (PfCRT^Dd2 [1]; [test solute] = 1 mM)	PfCRT-mediated [3H]CQ transport, cis-inhibition (% PfCRTDd2 control) (PfCRT^Dd2 [1]; [test solute] = 2 mM)	PfCRT-mediated [3H]CQ transport, cis-inhibition (% PfCRTEcu1110 control) (PfCRT^Ecu1110 [2]; [test solute] = 0.5 mM)	PfCRT-mediated [3H]CQ transport, cis-inhibition (% PfCRTEcu1110 control) (PfCRT^Ecu1110 [2]; [test solute] = 1 mM)	PfCRT-mediated [3H]CQ transport, cis-inhibition (% PfCRTEcu1110 control) (PfCRT^Ecu1110 [2]; [test solute] = 2 mM)	PfCRT-mediated [3H]CQ transport, trans-stimulation (% PfCRT3D7 control) (PfCRT^3D7; [5])	PfCRT-mediated [3H]CQ transport, trans-stimulation (% PfCRT3D7 control) (PfCRT^3D7; [6])	PfCRT-mediated [3H]CQ transport, trans-stimulation (% PfCRTDd2 control) (PfCRT^Dd2 [3]; [5])	PfCRT-mediated [3H]CQ transport, trans-stimulation (% PfCRTDd2 control) (PfCRT^Dd2 [3]; [6])	PfCRT-mediated [3H]CQ transport, trans-stimulation (% PfCRTEcu1110 control) (PfCRT^Ecu1110 [4]; [5])	PfCRT-mediated [3H]CQ transport, trans-stimulation (% PfCRTEcu1110 control) (PfCRT^Ecu1110 [4]; [6])	[3H]CQ transport (% PfCRTEcu1110 control), cis-inhibition, PfCRTEcu1110 (PfCRT^Ecu1110 [2]; [test solute] = 0.5 mM) [% PfCRTEcu1110 control]	[3H]CQ transport (% PfCRTEcu1110 control), cis-inhibition, PfCRTEcu1110 (PfCRT^Ecu1110 [2]; [test solute] = 1 mM) [% PfCRTEcu1110 control]	[3H]CQ transport (% PfCRTEcu1110 control), cis-inhibition, PfCRTEcu1110 (PfCRT^Ecu1110 [2]; [test solute] = 2 mM) [% PfCRTEcu1110 control]	[3H]CQ transport (% PfCRTDd2 control), trans-stimulation, PfCRTDd2 (PfCRT^Dd2 [3]; [7]) [% PfCRTDd2 control]	[3H]CQ transport (% PfCRTDd2 control), trans-stimulation, PfCRTDd2 (PfCRT^Dd2 [3]; [8]) [% PfCRTDd2 control]	[3H]CQ transport (% PfCRTDd2 control), trans-stimulation, PfCRTEcu1110 (PfCRT^Ecu1110 [4]; [7]) [% PfCRTEcu1110 control]	[3H]CQ transport (% PfCRTDd2 control), trans-stimulation, PfCRTEcu1110 (PfCRT^Ecu1110 [4]; [8]) [% PfCRTEcu1110 control]
LSDLHAHK [LK-8]	55 ± 2.3	51 ± 0.1	25 ± 0.3	62 ± 3.1	48 ± 2.2	39 ± 2.4	98 ± 3.4	96 ± 1.3	98 ± 3.3	97 ± 3.1	97 ± 1.4	98 ± 3.4							
KEEAE [KE-5]	68 ± 3.2	60 ± 4.9	50 ± 1.1		61 ± 1.5	54 ± 2.1	98 ± 3.3	96 ± 2.1	97 ± 4.2	99 ± 3.2	98 ± 3.1	98 ± 1.3	21 ± 0.4	19 ± 0.3	17 ± 0.3	97 ± 4.2	99 ± 3.2	30 ± 1.5	30 ± 1.3
GLAHL [GL-5]	62 ± 1.1	50 ± 3.5	20 ± 1.3	68 ± 2.5	58 ± 3.5	28 ± 2.0	97 ± 3.5	94 ± 4.6	98 ± 4.1	98 ± 3.3	96 ± 4.1	99 ± 3.6		18 ± 0.1	9.0 ± 0.01	98 ± 4.1	98 ± 3.3	29 ± 1.4	30 ± 1.3
HVDPENFRL [HL-9]	38 ± 1.0	31 ± 0.3	9 ± 0.8	41 ± 2.5	35 ± 2.6	28 ± 0.1	98 ± 3.5	97 ± 3.1	97 ± 2.0	98 ± 3.3	98 ± 3.6	96 ± 2.1							
VDPVNFK [VK-7]	17 ± 0.3	9 ± 0.1	3.2 ± 0.1	40 ± 2.5	27 ± 4.1	22 ± 2.4	128 ± 3.2	179 ± 5.3	100 ± 4.2	98 ± 2.2	132 ± 3.5	138 ± 4.1	13 ± 0.6	9.0 ± 0.02	7.0 ± 0.04	100 ± 4.2	98 ± 2.2	40 ± 2.1	42 ± 2.4
